Patent US9326506B2, “Preparation method, agricultural composition and applications of natural brassinolide analogs” (CHENGDU NEWSUN CROPSCIENCE CO., LTD, priority 2012, dated 2016)

System: rice
Experiment: Low temperature assay on rice seedlings
Type: in vivo
Summary of the method: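 Nine-day-old etiolated rice seedlings (grown on water at 30 °C±2 °C, dark) immersed in brassinolide analogues at 1–0.0001 mg/L or pure water, held at 1–5 °C for 24 hr. Plant height, leaf area, root weight read at 3, 6, 9, 12 days; leaf and tiller number at 12 days.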

Structure (SMILES): CC(C)[C@H](C)[C@@H](O)[C@H](O)[C@@H](C)[C@H]1CCC2C3CC(=O)C4C[C@H](O)CC[C@]4(C)C3CC[C@@]21C (stereo partly shown) [BR4]
- Height (0.01 mg/l, 3 °C, 9 days): 7.5 cm
- Weight of root (0.01 mg/l, 3 °C, 9 days): 2.9 g
- Area of leaf (0.01 mg/l, 3 °C, 12 days): 13.2 cm^2
- Height (0.01 mg/l, 3 °C, 12 days): 7.8 cm
- Number of leaf (0.01 mg/l, 3 °C, 12 days): 3
- Number of tiller (0.01 mg/l, 3 °C, 12 days): 2
- Weight of root (0.01 mg/l, 3 °C, 12 days): 2.9 g
- Area of leaf (0.01 mg/l, 4 °C, 3 days): 10.8 cm^2
- Height (0.01 mg/l, 4 °C, 3 days): 7 cm
- Weight of root (0.01 mg/l, 4 °C, 3 days): 2.5 g
- Area of leaf (0.01 mg/l, 4 °C, 6 days): 12.4 cm^2
- Height (0.01 mg/l, 4 °C, 6 days): 7.4 cm
- Weight of root (0.01 mg/l, 4 °C, 6 days): 2.7 g
- Area of leaf (0.01 mg/l, 4 °C, 9 days): 13 cm^2
- Height (0.01 mg/l, 4 °C, 9 days): 7.7 cm
- Weight of root (0.01 mg/l, 4 °C, 9 days): 2.9 g
- Area of leaf (0.01 mg/l, 4 °C, 12 days): 13.5 cm^2
- Height (0.01 mg/l, 4 °C, 12 days): 7.8 cm
- Number of leaf (0.01 mg/l, 4 °C, 12 days): 3
- Number of tiller (0.01 mg/l, 4 °C, 12 days): 2
- Weight of root (0.01 mg/l, 4 °C, 12 days): 3.0 g
- Area of leaf (0.01 mg/l, 5 °C, 3 days): 10.3 cm^2
- Height (0.01 mg/l, 5 °C, 3 days): 7.2 cm
- Weight of root (0.01 mg/l, 5 °C, 3 days): 2.8 g
- Area of leaf (0.01 mg/l, 5 °C, 6 days): 13.1 cm^2
- Height (0.01 mg/l, 5 °C, 6 days): 7.4 cm
- Weight of root (0.01 mg/l, 5 °C, 6 days): 3.0 g
- Area of leaf (0.01 mg/l, 5 °C, 9 days): 16.4 cm^2
- Height (0.01 mg/l, 5 °C, 9 days): 7.8 cm
- Weight of root (0.01 mg/l, 5 °C, 9 days): 3.4 g
- Area of leaf (0.01 mg/l, 5 °C, 12 days): 17 cm^2
- Height (0.01 mg/l, 5 °C, 12 days): 8.2 cm
- Number of leaf (0.01 mg/l, 5 °C, 12 days): 4
- Number of tiller (0.01 mg/l, 5 °C, 12 days): 3
- Weight of root (0.01 mg/l, 5 °C, 12 days): 3.9 g
- Area of leaf (0.1 mg/l, 1 °C, 3 days): 10 cm^2
- Height (0.1 mg/l, 1 °C, 3 days): 7.1 cm
- Weight of root (0.1 mg/l, 1 °C, 3 days): 2.8 g
- Area of leaf (0.1 mg/l, 1 °C, 6 days): 11 cm^2
- Height (0.1 mg/l, 1 °C, 6 days): 7.2 cm
- Weight of root (0.1 mg/l, 1 °C, 6 days): 2.9 g
- Area of leaf (0.1 mg/l, 1 °C, 9 days): 12.1 cm^2
- Height (0.1 mg/l, 1 °C, 9 days): 7.3 cm
- Weight of root (0.1 mg/l, 1 °C, 9 days): 3.3 g
- Area of leaf (0.1 mg/l, 1 °C, 12 days): 13.1 cm^2
- Height (0.1 mg/l, 1 °C, 12 days): 7.3 cm
- Number of leaf (0.1 mg/l, 1 °C, 12 days): 3
- Number of tiller (0.1 mg/l, 1 °C, 12 days): 3
- Weight of root (0.1 mg/l, 1 °C, 12 days): 3.6 g
- Area of leaf (0.1 mg/l, 2 °C, 3 days): 10.2 cm^2
- Height (0.1 mg/l, 2 °C, 3 days): 7.1 cm
- Weight of root (0.1 mg/l, 2 °C, 3 days): 2.8 g
- Area of leaf (0.1 mg/l, 2 °C, 6 days): 11.2 cm^2
- Height (0.1 mg/l, 2 °C, 6 days): 7.1 cm
- Weight of root (0.1 mg/l, 2 °C, 6 days): 3.1 g
- Area of leaf (0.1 mg/l, 2 °C, 9 days): 12.6 cm^2
- Height (0.1 mg/l, 2 °C, 9 days): 7.3 cm
- Weight of root (0.1 mg/l, 2 °C, 9 days): 3.1 g
- Area of leaf (0.1 mg/l, 2 °C, 12 days): 13.2 cm^2
- Height (0.1 mg/l, 2 °C, 12 days): 7.4 cm
- Number of leaf (0.1 mg/l, 2 °C, 12 days): 3
- Number of tiller (0.1 mg/l, 2 °C, 12 days): 3
- Weight of root (0.1 mg/l, 2 °C, 12 days): 3.2 g
- Area of leaf (0.1 mg/l, 3 °C, 3 days): 10.5 cm^2
- Height (0.1 mg/l, 3 °C, 3 days): 7.3 cm
- Weight of root (0.1 mg/l, 3 °C, 3 days): 2.5 g
- Area of leaf (0.1 mg/l, 3 °C, 6 days): 12 cm^2
- Height (0.1 mg/l, 3 °C, 6 days): 7.4 cm
- Weight of root (0.1 mg/l, 3 °C, 6 days): 2.7 g
- Area of leaf (0.1 mg/l, 3 °C, 9 days): 12.1 cm^2
- Height (0.1 mg/l, 3 °C, 9 days): 7.8 cm
- Weight of root (0.1 mg/l, 3 °C, 9 days): 2.7 g
- Area of leaf (0.1 mg/l, 3 °C, 12 days): 13.4 cm^2
- Height (0.1 mg/l, 3 °C, 12 days): 7.9 cm
- Number of leaf (0.1 mg/l, 3 °C, 12 days): 3
- Number of tiller (0.1 mg/l, 3 °C, 12 days): 2
- Weight of root (0.1 mg/l, 3 °C, 12 days): 2.9 g
- Area of leaf (0.1 mg/l, 4 °C, 3 days): 10.6 cm^2
- Height (0.1 mg/l, 4 °C, 3 days): 7.3 cm
- Weight of root (0.1 mg/l, 4 °C, 3 days): 2.5 g
- Area of leaf (0.1 mg/l, 4 °C, 6 days): 12 cm^2
- Height (0.1 mg/l, 4 °C, 6 days): 7.4 cm
- Weight of root (0.1 mg/l, 4 °C, 6 days): 2.6 g
- Area of leaf (0.1 mg/l, 4 °C, 9 days): 13.2 cm^2
- Height (0.1 mg/l, 4 °C, 9 days): 7.8 cm
- Weight of root (0.1 mg/l, 4 °C, 9 days): 2.9 g
- Area of leaf (0.1 mg/l, 4 °C, 12 days): 13.4 cm^2
- Height (0.1 mg/l, 4 °C, 12 days): 8 cm
- Number of leaf (0.1 mg/l, 4 °C, 12 days): 3
- Number of tiller (0.1 mg/l, 4 °C, 12 days): 2
- Weight of root (0.1 mg/l, 4 °C, 12 days): 3.1 g
- Area of leaf (0.1 mg/l, 5 °C, 3 days): 11 cm^2
- Height (0.1 mg/l, 5 °C, 3 days): 7.4 cm
- Weight of root (0.1 mg/l, 5 °C, 3 days): 2.9 g
- Area of leaf (0.1 mg/l, 5 °C, 6 days): 12.1 cm^2
- Height (0.1 mg/l, 5 °C, 6 days): 7.5 cm
- Weight of root (0.1 mg/l, 5 °C, 6 days): 3.1 g
- Area of leaf (0.1 mg/l, 5 °C, 9 days): 16.2 cm^2
- Height (0.1 mg/l, 5 °C, 9 days): 8 cm
- Weight of root (0.1 mg/l, 5 °C, 9 days): 3.5 g
- Area of leaf (0.1 mg/l, 5 °C, 12 days): 17.8 cm^2
- Height (0.1 mg/l, 5 °C, 12 days): 8.1 cm
- Number of leaf (0.1 mg/l, 5 °C, 12 days): 3
- Number of tiller (0.1 mg/l, 5 °C, 12 days): 2
- Weight of root (0.1 mg/l, 5 °C, 12 days): 4.1 g
- Area of leaf (1 mg/l, 1 °C, 3 days): 10 cm^2
- Height (1 mg/l, 1 °C, 3 days): 6.8 cm
- Weight of root (1 mg/l, 1 °C, 3 days): 2.6 g
- Area of leaf (1 mg/l, 1 °C, 6 days): 11 cm^2
- Height (1 mg/l, 1 °C, 6 days): 7 cm
- Weight of root (1 mg/l, 1 °C, 6 days): 3.1 g
- Area of leaf (1 mg/l, 1 °C, 9 days): 12.4 cm^2
- Height (1 mg/l, 1 °C, 9 days): 7.1 cm
- Weight of root (1 mg/l, 1 °C, 9 days): 3.2 g
- Area of leaf (1 mg/l, 1 °C, 12 days): 13 cm^2
- Height (1 mg/l, 1 °C, 12 days): 7.7 cm
- Number of leaf (1 mg/l, 1 °C, 12 days): 3
- Number of tiller (1 mg/l, 1 °C, 12 days): 3
- Weight of root (1 mg/l, 1 °C, 12 days): 3.7 g
- Area of leaf (1 mg/l, 2 °C, 3 days): 10.1 cm^2
- Height (1 mg/l, 2 °C, 3 days): 7 cm
- Weight of root (1 mg/l, 2 °C, 3 days): 2.55 g
- Area of leaf (1 mg/l, 2 °C, 6 days): 11.7 cm^2
- Height (1 mg/l, 2 °C, 6 days): 7.2 cm
- Weight of root (1 mg/l, 2 °C, 6 days): 3.0 g
- Area of leaf (1 mg/l, 2 °C, 9 days): 12 cm^2
- Height (1 mg/l, 2 °C, 9 days): 7.4 cm
- Weight of root (1 mg/l, 2 °C, 9 days): 3.2 g
- Area of leaf (1 mg/l, 2 °C, 12 days): 13 cm^2
- Height (1 mg/l, 2 °C, 12 days): 8 cm
- Number of leaf (1 mg/l, 2 °C, 12 days): 3
- Number of tiller (1 mg/l, 2 °C, 12 days): 3
- Weight of root (1 mg/l, 2 °C, 12 days): 3.7 g
- Area of leaf (1 mg/l, 3 °C, 3 days): 10.4 cm^2
- Height (1 mg/l, 3 °C, 3 days): 7 cm
- Weight of root (1 mg/l, 3 °C, 3 days): 2.5 g
- Area of leaf (1 mg/l, 3 °C, 6 days): 12 cm^2
- Height (1 mg/l, 3 °C, 6 days): 7.5 cm
- Weight of root (1 mg/l, 3 °C, 6 days): 2.6 g
- Area of leaf (1 mg/l, 3 °C, 9 days): 12 cm^2
- Height (1 mg/l, 3 °C, 9 days): 7.7 cm
- Weight of root (1 mg/l, 3 °C, 9 days): 2.6 g
- Area of leaf (1 mg/l, 3 °C, 12 days): 13.2 cm^2
- Height (1 mg/l, 3 °C, 12 days): 8.1 cm
- Number of leaf (1 mg/l, 3 °C, 12 days): 3
- Number of tiller (1 mg/l, 3 °C, 12 days): 2
- Weight of root (1 mg/l, 3 °C, 12 days): 2.9 g
- Area of leaf (1 mg/l, 4 °C, 3 days): 10.7 cm^2
- Height (1 mg/l, 4 °C, 3 days): 7.3 cm
- Weight of root (1 mg/l, 4 °C, 3 days): 2.5 g
- Area of leaf (1 mg/l, 4 °C, 6 days): 12 cm^2
- Height (1 mg/l, 4 °C, 6 days): 7.5 cm
- Weight of root (1 mg/l, 4 °C, 6 days): 2.7 g
- Area of leaf (1 mg/l, 4 °C, 9 days): 13.2 cm^2
- Height (1 mg/l, 4 °C, 9 days): 7.8 cm
- Weight of root (1 mg/l, 4 °C, 9 days): 3.0 g
- Area of leaf (1 mg/l, 4 °C, 12 days): 14 cm^2
- Height (1 mg/l, 4 °C, 12 days): 8.2 cm
- Number of leaf (1 mg/l, 4 °C, 12 days): 3
- Number of tiller (1 mg/l, 4 °C, 12 days): 2
- Weight of root (1 mg/l, 4 °C, 12 days): 3.2 g
- Area of leaf (1 mg/l, 5 °C, 3 days): 11.1 cm^2
- Height (1 mg/l, 5 °C, 3 days): 7.4 cm
- Weight of root (1 mg/l, 5 °C, 3 days): 2.9 g
- Area of leaf (1 mg/l, 5 °C, 6 days): 13 cm^2
- Height (1 mg/l, 5 °C, 6 days): 7.4 cm
- Weight of root (1 mg/l, 5 °C, 6 days): 3.5 g
- Area of leaf (1 mg/l, 5 °C, 9 days): 18 cm^2
- Height (1 mg/l, 5 °C, 9 days): 8.1 cm
- Weight of root (1 mg/l, 5 °C, 9 days): 3.7 g
- Area of leaf (1 mg/l, 5 °C, 12 days): 20 cm^2
- Height (1 mg/l, 5 °C, 12 days): 8.3 cm
- Number of leaf (1 mg/l, 5 °C, 12 days): 3
- Number of tiller (1 mg/l, 5 °C, 12 days): 2
- Weight of root (1 mg/l, 5 °C, 12 days): 4.5 g
